In patent US9944602B2, “Piperidinone herbicides” (E. I. DU PONT DE NEMOURS AND COMPANY, priority 2014, dated 2018):

Experiments:
Format in all cases: in vivo
[1] = test system: ragweed (common ragweed, Ambrosia elatior); experiment: Test A preemergence ragweed; conditions: Ambrosia artemisiifolia, pre-emergence, 240 h, 0 to 100 scale, 0 no effect, 100 complete control, read-out: Ragweed plant response rating; for pest or weed control at 125 g/ha: 125 g ai/ha; for pest or weed control at 500 g/ha: 500 g ai/ha
How it was run: (§1)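 Greenhouse pot test: chemicals formulated with surfactant in non-phytotoxic solvent, sprayed on soil at seeding (pre) or on 1–2 leaf seedlings of 2–10 cm (post). Rating ~10 d later, visual, 0 = no effect to 100 = complete control, relative to untreated controls.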

[2] = test system: blackgrass (Alopecurus myosuroides); experiment: Test A postemergence blackgrass; conditions: Alopecurus myosuroides, post-emergence, 240 h, 0 to 100 scale, 0 is no effect, 100 is complete control, read-out: Plant response rating, Blackgrass; for pest or weed control at 125 g/ha: 125 g ai/ha; for pest or weed control at 500 g/ha: 500 g ai/ha
How it was run: as §1

[3] = test system: barnyardgrass (Echinochloa crus-galli); experiment: Test A preemergence barnyardgrass; conditions: Echinochloa crus-galli, pre-emergence, 240 h, 0 to 100 scale, 0 no effect, 100 complete control, read-out: Barnyardgrass plant response rating; for pest or weed control at 125 g/ha: 125 g ai/ha; for pest or weed control at 500 g/ha: 500 g ai/ha
How it was run: as §1

[4] = test system: ryegrass, Italian (Italian ryegrass, Lolium multiflorum); experiment: Test A postemergence ryegrass, Italian; conditions: Lolium multiflorum, post-emergence, 240 h, 0 to 100 scale, 0 is no effect, 100 is complete control, read-out: Plant response rating, Ryegrass, Italian; for pest or weed control at 125 g/ha: 125 g ai/ha; for pest or weed control at 500 g/ha: 500 g ai/ha
How it was run: as §1

[5] = test system: ducksalad (Heteranthera limosa); experiment: Test B flooded paddy test ducksalad; conditions: Heteranthera limosa, Table B, Flood, 250 g ai/ha, scale 0 to 100, read-out: Plant response rating
How it was run: (§2)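 2-leaf plants; flood 3 cm over soil; cpd into paddy water; water depth kept; greenhouse 13–15 d; visual rating vs controls.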

[6] = test system: foxtail, giant (giant foxtail, Setaria faberii); experiment: Test A preemergence foxtail, giant; conditions: Setaria faberi, pre-emergence, 240 h, 0 to 100 scale, 0 no effect, 100 complete control, read-out: Foxtail, Giant plant response rating; for pest or weed control at 125 g/ha: 125 g ai/ha; for pest or weed control at 500 g/ha: 500 g ai/ha
How it was run: as §1

rice (Oryza sativa) = experiment: Test B flooded paddy test rice; conditions: Oryza sativa, Table B, Flood, 250 g ai/ha, scale 0 to 100, read-out: Plant response rating
How it was run: as §2

[7] = test system: pigweed (Amaranthus retroflexus); experiment: Test A preemergence pigweed; conditions: Amaranthus retroflexus, pre-emergence, 240 h, 0 to 100 scale, 0 no effect, 100 complete control, read-out: Pigweed plant response rating; for pest or weed control at 125 g/ha: 125 g ai/ha; for pest or weed control at 500 g/ha: 500 g ai/ha
How it was run: as §1

[8] = test system: barnyardgrass (Echinochloa crus-galli); experiment: Test B flooded paddy test barnyardgrass; conditions: Echinochloa crus-galli, Table B, Flood, 250 g ai/ha, scale 0 to 100, read-out: Plant response rating
How it was run: as §2

[9] = test system: sedge, umbrella (small-flower umbrella sedge, Cyperus difformis); experiment: Test B flooded paddy test sedge, umbrella; conditions: Cyperus difformis, Table B, Flood, 250 g ai/ha, scale 0 to 100, read-out: Plant response rating
How it was run: as §2

kochia (Kochia scoparia) [10] = experiment: Test A postemergence kochia; conditions: Bassia scoparia, post-emergence, 240 h, 0 to 100 scale, 0 is no effect, 100 is complete control, read-out: Plant response rating, Kochia; for pest or weed control at 125 g/ha: 125 g ai/ha; for pest or weed control at 500 g/ha: 500 g ai/ha
How it was run: as §1

[11] = test system: ragweed (common ragweed, Ambrosia elatior); experiment: Test A postemergence ragweed; conditions: Ambrosia artemisiifolia, post-emergence, 240 h, 0 to 100 scale, 0 is no effect, 100 is complete control, read-out: Plant response rating, Ragweed; for pest or weed control at 125 g/ha: 125 g ai/ha; for pest or weed control at 500 g/ha: 500 g ai/ha
How it was run: as §1

[12] = test system: pigweed (Amaranthus retroflexus); experiment: Test A postemergence pigweed; conditions: Amaranthus retroflexus, post-emergence, 240 h, 0 to 100 scale, 0 is no effect, 100 is complete control, read-out: Plant response rating, Pigweed; for pest or weed control at 125 g/ha: 125 g ai/ha; for pest or weed control at 500 g/ha: 500 g ai/ha
How it was run: as §1

[13] = test system: barnyardgrass (Echinochloa crus-galli); experiment: Test A postemergence barnyardgrass; conditions: Echinochloa crus-galli, post-emergence, 240 h, 0 to 100 scale, 0 is no effect, 100 is complete control, read-out: Plant response rating, Barnyardgrass; for pest or weed control at 125 g/ha: 125 g ai/ha; for pest or weed control at 500 g/ha: 500 g ai/ha
How it was run: as §1

corn (Zea mays) = experiment: Test A postemergence corn; conditions: Zea mays, post-emergence, 240 h, 0 to 100 scale, 0 is no effect, 100 is complete control; for Corn plant response rating (crop injury, 0 = no effect, 100 = complete kill) at 125 g/ha: 125 g ai/ha; for Corn plant response rating (crop injury, 0 = no effect, 100 = complete kill) at 500 g/ha: 500 g ai/ha
How it was run: as §1

[14] = test system: ryegrass, Italian (Italian ryegrass, Lolium multiflorum); experiment: Test A preemergence ryegrass, Italian; conditions: Lolium multiflorum, pre-emergence, 240 h, 0 to 100 scale, 0 no effect, 100 complete control, read-out: Ryegrass, Italian plant response rating; for pest or weed control at 125 g/ha: 125 g ai/ha; for pest or weed control at 500 g/ha: 500 g ai/ha
How it was run: as §1

kochia (Kochia scoparia) [15] = experiment: Test A preemergence kochia; conditions: Bassia scoparia, pre-emergence, 240 h, 0 to 100 scale, 0 no effect, 100 complete control, read-out: Kochia plant response rating; for pest or weed control at 125 g/ha: 125 g ai/ha; for pest or weed control at 500 g/ha: 500 g ai/ha
How it was run: as §1

[16] = test system: galium (catchweed bedstraw, Galium aparine); experiment: Test A postemergence galium; conditions: Galium, post-emergence, 240 h, 0 to 100 scale, 0 is no effect, 100 is complete control, read-out: Plant response rating, Galium; for pest or weed control at 125 g/ha: 125 g ai/ha; for pest or weed control at 500 g/ha: 500 g ai/ha
How it was run: as §1

[17] = test system: wheat (Triticum aestivum); experiment: Test A postemergence wheat; conditions: Triticum aestivum, post-emergence, 240 h, 0 to 100 scale, 0 is no effect, 100 is complete control, read-out: Plant response rating, Wheat; for plant injury at 125 g/ha: 125 g ai/ha; for plant injury at 500 g/ha: 500 g ai/ha
How it was run: as §1

[18] = test system: foxtail, giant (giant foxtail, Setaria faberii); experiment: Test A postemergence foxtail, giant; conditions: Setaria faberi, post-emergence, 240 h, 0 to 100 scale, 0 is no effect, 100 is complete control, read-out: Plant response rating, Foxtail, Giant; for pest or weed control at 125 g/ha: 125 g ai/ha; for pest or weed control at 500 g/ha: 500 g ai/ha
How it was run: as §1

Structure (SMILES) | pest or weed control at 125 g/ha [1] [%] | pest or weed control at 500 g/ha [1] [%] | pest or weed control at 125 g/ha [2] [%] | pest or weed control at 500 g/ha [2] [%] | pest or weed control at 125 g/ha [3] [%] | pest or weed control at 500 g/ha [3] [%] | pest or weed control at 125 g/ha [4] [%] | pest or weed control at 500 g/ha [4] [%] | pest or weed control at 250 g/ha [5] [%] | pest or weed control at 125 g/ha [6] [%] | pest or weed control at 500 g/ha [6] [%] | plant injury at 250 g/ha (rice (Oryza sativa)) [%] | pest or weed control at 125 g/ha [7] [%] | pest or weed control at 500 g/ha [7] [%] | pest or weed control at 250 g/ha [8] [%] | pest or weed control at 250 g/ha [9] [%] | pest or weed control at 125 g/ha (kochia (Kochia scoparia) [10]) [%] | pest or weed control at 500 g/ha (kochia (Kochia scoparia) [10]) [%] | pest or weed control at 125 g/ha [11] [%] | pest or weed control at 500 g/ha [11] [%] | other results
O=C1NCC[C@H](c2cccc(C(F)(F)F)c2)[C@H]1C(=O)Nc1cccc(Cl)c1F [Compound 25, (3R,4S)—N-(3-chloro-2-fluorophenyl)-2-oxo-4-[3-(trifluoromethyl)phenyl]-3-piperidinecarboxamide] | 0 | 0 | 60 | 80 | 90 | 90 | 30 | 40 | 45 | 90 | 90 | 0 | 0 | 0 | 60 | 0 | 0 | 0 | 0 | 0 | pest or weed control at 125 g/ha [12]: 0%; pest or weed control at 500 g/ha [12]: 0%; pest or weed control at 125 g/ha [13]: 80%; pest or weed control at 500 g/ha [13]: 80%; Corn plant response rating (crop injury, 0 = no effect, 100 = complete kill) at 125 g/ha (corn (Zea mays)): 20%; Corn plant response rating (crop injury, 0 = no effect, 100 = complete kill) at 500 g/ha (corn (Zea mays)): 70%; pest or weed control at 125 g/ha [14]: 0%; pest or weed control at 500 g/ha [14]: 50%; pest or weed control at 125 g/ha (kochia (Kochia scoparia) [15]): 0%; pest or weed control at 500 g/ha (kochia (Kochia scoparia) [15]): 0%; pest or weed control at 125 g/ha [16]: 30%; pest or weed control at 500 g/ha [16]: 30%; plant injury at 125 g/ha [17]: 40%; plant injury at 500 g/ha [17]: 60%; pest or weed control at 125 g/ha [18]: 80%; pest or weed control at 500 g/ha [18]: 80%
O=C1NCCC(c2cccc(C(F)(F)F)c2)C1C(=O)Nc1ccc(F)c(F)c1F (stereo not drawn) [Compound 30, 2-oxo-4-[3-(trifluoromethyl)phenyl]-N-(2,3,4-trifluorophenyl)-3-piperidinecarboxamide] | 0 | 0 | 70 | 80 | 90 | 90 | 0 | 20 | 50 | 90 | 90 | 20 | 0 | 0 | 50 | 0 | 0 | 0 | 0 | 0 | pest or weed control at 125 g/ha [12]: 0%; pest or weed control at 500 g/ha [12]: 0%; pest or weed control at 125 g/ha [13]: 80%; pest or weed control at 500 g/ha [13]: 80%; Corn plant response rating (crop injury, 0 = no effect, 100 = complete kill) at 125 g/ha (corn (Zea mays)): 30%; Corn plant response rating (crop injury, 0 = no effect, 100 = complete kill) at 500 g/ha (corn (Zea mays)): 70%; pest or weed control at 125 g/ha [14]: 20%; pest or weed control at 500 g/ha [14]: 50%; pest or weed control at 125 g/ha (kochia (Kochia scoparia) [15]): 0%; pest or weed control at 500 g/ha (kochia (Kochia scoparia) [15]): 0%; pest or weed control at 125 g/ha [16]: 0%; pest or weed control at 500 g/ha [16]: 0%; plant injury at 125 g/ha [17]: 30%; plant injury at 500 g/ha [17]: 60%; pest or weed control at 125 g/ha [18]: 80%; pest or weed control at 500 g/ha [18]: 80%
